Assay results as given in PubChem BioAssay AID256 (DTP/NCI, 2004).
Values joined by “and” are separate entries in the source; they are usually repeats but may differ in a detail not shown here. Equal values may be shown once. Inconclusive results and toxic doses are left out.

System: CD2F1 mice, L1210 leukemia ip, survival T/C
Test: NCI In Vivo Anticancer Drug Screen. Data for tumor model L1210 Leukemia (intraperitoneal) in CD2F1 (CDF1) mice
Conditions: endpoint: median survival time, higher = longer survival
In short: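 Vehicle-treated tumor-bearing mice served as controls (C) for compound-treated mice (T). Reported figure is T divided by C.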

O=C1NC(=O)C2C3C=CC(C12)C1C2C(=O)NC(=O)C2C31 (centres undefined)
T/C (dose: 30.0 mg/kg/injection, schedule: Q01DX009 (ip), vehicle: clinical formulation): 166 % of control | T/C (dose: 30.0 mg/kg/injection, schedule: Q01DX009 (ip), vehicle: water): 186 % of control | T/C (dose: 32.9 mg/kg/injection, schedule: Q01DX009 (ip), vehicle: water): 226 % of control | T/C (dose: 38.9 mg/kg/injection, schedule: Q01DX009 (ip), vehicle: water): 200 % of control | T/C (dose: 46.3 mg/kg/injection, schedule: Q03HX027 (ip), vehicle: saline): 88 % of control | T/C (dose: 50.0 mg/kg/injection, schedule: Q01DX001 (iv), vehicle: other): 106 % of control | T/C (dose: 50.0 mg/kg/injection, schedule: Q01DX001 (oral), vehicle: other): 100 % of control | T/C (dose: 50.0 mg/kg/injection, schedule: Q01DX005 (ip), vehicle: clinical formulation): 198 % of control | T/C (dose: 50.0 mg/kg/injection, schedule: Q01DX005 (iv), vehicle: clinical formulation): 174 % of control | T/C (dose: 50.0 mg/kg/injection, schedule: Q01DX005 (iv), vehicle: other): 185 % of control | T/C (dose: 50.0 mg/kg/injection, schedule: Q01DX005 (oral), vehicle: other): 101 % of control | T/C (dose: 50.0 mg/kg/injection, schedule: Q01DX009 (ip), vehicle: clinical formulation): 176 % of control and 203 % of control | T/C (dose: 50.0 mg/kg/injection, schedule: Q01DX009 (ip), vehicle: saline with Tween-80): 246 % of control | T/C (dose: 50.0 mg/kg/injection, schedule: Q01DX009 (ip), vehicle: saline): 160 % of control | T/C (dose: 50.0 mg/kg/injection, schedule: Q01DX009 (ip), vehicle: water): 256 % of control | T/C (dose: 50.0 mg/kg/injection, schedule: Q01DX009 (oral), vehicle: other): 109 % of control | T/C (dose: 54.8 mg/kg/injection, schedule: Q01DX009 (ip), vehicle: water): 119 % of control | T/C (dose: 55.5 mg/kg/injection, schedule: Q01DX009 (ip), vehicle: clinical formulation): 284 % of control | T/C (dose: 55.5 mg/kg/injection, schedule: Q01DX009 (oral), vehicle: clinical formulation): 108 % of control | T/C (dose: 62.5 mg/kg/injection, schedule: Q01DX001 (iv), vehicle: clinical formulation): 151 % of control | T/C (dose: 64.8 mg/kg/injection, schedule: Q01DX009 (ip), vehicle: water): 268 % of control | T/C (dose: 83.3 mg/kg/injection, schedule: Q01DX009 (ip), vehicle: clinical formulation): 112 % of control | T/C (dose: 83.3 mg/kg/injection, schedule: Q01DX009 (ip), vehicle: saline): 106 % of control | T/C (dose: 83.3 mg/kg/injection, schedule: Q01DX009 (ip), vehicle: water): 97 % of control | T/C (dose: 83.3 mg/kg/injection, schedule: Q04DX003 (ip), vehicle: clinical formulation): 182 % of control | T/C (dose: 100.0 mg/kg/injection, schedule: Q01DX001 (iv), vehicle: other): 104 % of control | T/C (dose: 100.0 mg/kg/injection, schedule: Q01DX001 (oral), vehicle: other): 98 % of control | T/C (dose: 100.0 mg/kg/injection, schedule: Q01DX005 (iv), vehicle: other): 150 % of control and 195 % of control | T/C (dose: 100.0 mg/kg/injection, schedule: Q01DX005 (oral), vehicle: other): 100 % of control | T/C (dose: 100.0 mg/kg/injection, schedule: Q01DX009 (oral), vehicle: other): 114 % of control | T/C (dose: 111.1 mg/kg/injection, schedule: Q01DX009 (ip), vehicle: clinical formulation): 93 % of control | T/C (dose: 111.1 mg/kg/injection, schedule: Q01DX009 (oral), vehicle: clinical formulation): 121 % of control | T/C (dose: 125.0 mg/kg/injection, schedule: Q01DX001 (ip), vehicle: clinical formulation): 170 % of control | T/C (dose: 200.0 mg/kg/injection, schedule: Q01DX001 (iv), vehicle: other): 104 % of control | T/C (dose: 200.0 mg/kg/injection, schedule: Q01DX001 (oral), vehicle: other): 98 % of control | T/C (dose: 200.0 mg/kg/injection, schedule: Q01DX005 (ip), vehicle: other): 109 % of control | T/C (dose: 200.0 mg/kg/injection, schedule: Q01DX005 (iv), vehicle: other): 158 % of control | T/C (dose: 200.0 mg/kg/injection, schedule: Q01DX005 (oral), vehicle: other): 110 % of control | T/C (dose: 400.0 mg/kg/injection, schedule: Q01DX001 (iv), vehicle: other): 101 % of control | T/C (dose: 400.0 mg/kg/injection, schedule: Q01DX001 (oral), vehicle: other): 98 % of control | T/C (dose: 400.0 mg/kg/injection, schedule: Q01DX005 (oral), vehicle: other): 112 % of control | T/C (dose: 444.4 mg/kg/injection, schedule: Q01DX009 (oral), vehicle: clinical formulation): 158 % of control | T/C (dose: 800.0 mg/kg/injection, schedule: Q01DX001 (oral), vehicle: other): 102 % of control | T/C (dose: 888.8 mg/kg/injection, schedule: Q01DX009 (oral), vehicle: clinical formulation): 184 % of control
